Consider 1 molecule from patent US9322022B2, “Inhibition of DNA2 in fanconi anemia” (California Institute of Technology, priority 2013, dated 2016).

The structures appear in SMILES notation.

For assay [1], the system named is PD20 FANCD2−/− cells complemented with wild-type FANCD2. The experiment in a line: Clonogenic assay for cisplatin sensitivity. The format is cell-based, human. The protocol: (§1) The genetic interaction between FANCD2 and DNA2 was examined in the repair of cisplatin- or formaldehyde-induced damage. Using PD20 FANCD2^−/− cells complemented with wild-type FANCD2 or an empty vector, DNA2 was depleted using shRNA techniques (FIG. 2A). As shown, DNA2 was reduced to levels undetectable by western blotting. The cell lines were exposed to cisplatin, and a clonogenic assay was performed (FIG. 2B). […] This rescue is stronger than previously reported, consistent with lower residual DNA2 levels detected by western blotting in the knockdowns (Karanja et al., 2012, Cell Cycle, 11:3983-3996, the entire contents of which are herein incorporated by reference.)
(§2) For acute exposure, formaldehyde (0, 40, 80, 160, 320 μM) was added for 4 h in PBS. Cells were washed in PBS and grown for 5 days. For chronic exposure, cells were continuously grown in formaldehyde (0, 30, 60, 90, 120 μM) for 6 days. To determine viability, cells were fixed and stained with crystal violet and scanned with a Licor Odyssey scanner (LiCor Biosciences). The surviving fraction was determined by comparing treated with the non-treated controls. […] Surviving fraction was determined by comparing treated with the non-treated controls.

Assay [2] has as its system PD20 FANCD2−/− cells. Kind of assay: Clonogenic assay for cisplatin sensitivity. The format is cell-based, human. The following applies: FANCD2−/− cells (empty vector). How it is done:
as §1, §2

Consider `N.N.[Cl][Pt][Cl]` [cisplatin], for which the “sensitivity of cells to cisplatin (clonogenic survival)” value in assay [1] is “resistant”; in assay [2] it was “very sensitive”.
